Test results from ChEMBL document CHEMBL1909046, “DrugMatrix in vitro pharmacology data”.

Assays:
[1] = biological target: T1, Interstitial collagenase (Homo sapiens, UniProt P03956); assay: biochemical; format: tissue-based, Rheumatoid synovial fibroblasts;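 note: MMP-1 enzyme inhibition assay using a peptide substrate; in other assays of this panel Not Active means under 50% inhibition at 10 µM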
T1 sequence (P03956 whole entry): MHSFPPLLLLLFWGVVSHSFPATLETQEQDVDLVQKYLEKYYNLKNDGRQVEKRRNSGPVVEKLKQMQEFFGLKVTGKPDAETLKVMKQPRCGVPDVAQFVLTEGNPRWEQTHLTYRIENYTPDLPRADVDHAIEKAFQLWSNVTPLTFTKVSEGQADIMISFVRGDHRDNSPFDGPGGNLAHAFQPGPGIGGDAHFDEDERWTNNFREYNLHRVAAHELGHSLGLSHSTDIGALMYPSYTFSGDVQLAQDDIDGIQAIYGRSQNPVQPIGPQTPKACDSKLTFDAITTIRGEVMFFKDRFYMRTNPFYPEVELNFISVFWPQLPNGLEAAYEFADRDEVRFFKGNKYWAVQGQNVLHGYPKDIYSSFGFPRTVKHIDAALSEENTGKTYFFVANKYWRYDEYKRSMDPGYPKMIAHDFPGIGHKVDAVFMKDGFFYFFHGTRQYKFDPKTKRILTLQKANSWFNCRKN

[2] = DRUGMATRIX: Imidazoline I2, Central radioligand binding (ligand: [3H] Idazoxan); format: cell membranes, Rattus norvegicus, Wistar, Cerebral cortex, Membrane; conditions: Not Active = under 50% inhibition at 10 µM
[3] = biological target: Melanocortin receptor 3 (Homo sapiens, UniProt P41968); format: cell membranes, HEK293, Membrane; conditions: hek293; note: in other assays of this panel Not Active means under 50% inhibition at 10 µM
Chain of Melanocortin receptor 3 (P41968 whole entry): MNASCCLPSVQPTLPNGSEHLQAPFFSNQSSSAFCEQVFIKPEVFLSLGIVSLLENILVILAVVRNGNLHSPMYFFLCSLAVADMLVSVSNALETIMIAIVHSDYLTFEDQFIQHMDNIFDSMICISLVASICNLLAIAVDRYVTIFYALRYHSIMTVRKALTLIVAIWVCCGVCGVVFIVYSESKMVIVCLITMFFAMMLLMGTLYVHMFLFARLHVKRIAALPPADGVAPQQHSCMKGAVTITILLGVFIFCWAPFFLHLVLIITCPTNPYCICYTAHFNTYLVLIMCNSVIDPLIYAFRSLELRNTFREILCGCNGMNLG

[4] = biological target: T2, Neuropeptide Y receptor type 1 (Homo sapiens, UniProt P25929); format: cell membranes, Membrane; conditions: sk-n-mc; note: in other assays of this panel Not Active means under 50% inhibition at 10 µM
T2 sequence (P25929 whole entry): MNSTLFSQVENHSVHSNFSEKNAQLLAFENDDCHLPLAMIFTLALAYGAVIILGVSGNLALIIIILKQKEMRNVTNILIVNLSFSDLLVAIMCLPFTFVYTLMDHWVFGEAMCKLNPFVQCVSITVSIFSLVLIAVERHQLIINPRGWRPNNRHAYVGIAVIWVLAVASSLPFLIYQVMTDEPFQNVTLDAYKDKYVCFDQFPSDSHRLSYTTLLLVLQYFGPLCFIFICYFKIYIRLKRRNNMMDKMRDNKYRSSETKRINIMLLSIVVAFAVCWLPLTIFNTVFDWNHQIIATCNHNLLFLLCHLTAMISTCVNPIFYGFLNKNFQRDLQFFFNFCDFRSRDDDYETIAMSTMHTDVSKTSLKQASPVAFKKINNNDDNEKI

[5] = biological target: Nitric oxide synthase 1 (Rattus norvegicus, UniProt P29476); format: tissue-based, Cerebellum; note: in other assays of this panel Not Active means under 50% inhibition at 10 µM
Chain of Nitric oxide synthase 1 (P29476 whole entry): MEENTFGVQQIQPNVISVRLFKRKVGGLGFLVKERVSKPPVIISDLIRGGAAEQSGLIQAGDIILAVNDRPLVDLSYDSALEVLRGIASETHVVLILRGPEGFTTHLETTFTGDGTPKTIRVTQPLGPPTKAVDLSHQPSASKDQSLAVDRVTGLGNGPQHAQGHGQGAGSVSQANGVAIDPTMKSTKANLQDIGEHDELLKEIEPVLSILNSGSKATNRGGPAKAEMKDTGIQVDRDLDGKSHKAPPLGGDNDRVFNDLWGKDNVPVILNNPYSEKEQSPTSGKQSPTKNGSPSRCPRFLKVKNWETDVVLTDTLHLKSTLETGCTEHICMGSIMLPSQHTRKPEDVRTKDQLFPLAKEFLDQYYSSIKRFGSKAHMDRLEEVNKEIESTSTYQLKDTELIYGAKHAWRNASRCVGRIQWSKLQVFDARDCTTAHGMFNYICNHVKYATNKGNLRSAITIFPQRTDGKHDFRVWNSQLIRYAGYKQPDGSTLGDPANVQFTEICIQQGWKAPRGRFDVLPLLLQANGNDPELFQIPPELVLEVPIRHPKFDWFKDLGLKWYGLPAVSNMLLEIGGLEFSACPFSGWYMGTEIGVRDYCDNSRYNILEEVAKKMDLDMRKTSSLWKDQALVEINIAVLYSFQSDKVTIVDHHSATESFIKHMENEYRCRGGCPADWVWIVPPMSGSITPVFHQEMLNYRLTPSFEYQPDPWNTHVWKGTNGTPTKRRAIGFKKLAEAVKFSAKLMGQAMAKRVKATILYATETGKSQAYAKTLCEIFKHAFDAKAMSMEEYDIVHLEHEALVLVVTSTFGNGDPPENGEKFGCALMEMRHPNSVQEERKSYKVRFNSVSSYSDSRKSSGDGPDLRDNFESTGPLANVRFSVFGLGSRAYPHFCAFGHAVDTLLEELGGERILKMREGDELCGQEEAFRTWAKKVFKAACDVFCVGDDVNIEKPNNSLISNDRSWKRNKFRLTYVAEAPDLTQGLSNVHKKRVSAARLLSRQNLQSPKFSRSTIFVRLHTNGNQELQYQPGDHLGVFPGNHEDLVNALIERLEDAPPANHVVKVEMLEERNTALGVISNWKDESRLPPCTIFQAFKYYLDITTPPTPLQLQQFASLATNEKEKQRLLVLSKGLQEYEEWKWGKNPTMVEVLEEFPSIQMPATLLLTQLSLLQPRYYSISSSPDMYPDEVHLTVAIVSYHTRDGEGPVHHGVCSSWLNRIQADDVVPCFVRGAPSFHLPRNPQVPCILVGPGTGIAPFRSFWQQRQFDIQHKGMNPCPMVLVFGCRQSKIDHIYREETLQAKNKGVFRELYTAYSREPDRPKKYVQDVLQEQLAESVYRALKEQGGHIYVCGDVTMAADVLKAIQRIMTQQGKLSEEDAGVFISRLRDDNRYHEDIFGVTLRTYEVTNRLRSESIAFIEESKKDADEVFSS

[6] = biological target: Substance-P receptor (Homo sapiens, UniProt P25103); format: cell membranes, CHO, Membrane; conditions: cho; note: in other assays of this panel Not Active means under 50% inhibition at 10 µM
Chain of Substance-P receptor (P25103 whole entry): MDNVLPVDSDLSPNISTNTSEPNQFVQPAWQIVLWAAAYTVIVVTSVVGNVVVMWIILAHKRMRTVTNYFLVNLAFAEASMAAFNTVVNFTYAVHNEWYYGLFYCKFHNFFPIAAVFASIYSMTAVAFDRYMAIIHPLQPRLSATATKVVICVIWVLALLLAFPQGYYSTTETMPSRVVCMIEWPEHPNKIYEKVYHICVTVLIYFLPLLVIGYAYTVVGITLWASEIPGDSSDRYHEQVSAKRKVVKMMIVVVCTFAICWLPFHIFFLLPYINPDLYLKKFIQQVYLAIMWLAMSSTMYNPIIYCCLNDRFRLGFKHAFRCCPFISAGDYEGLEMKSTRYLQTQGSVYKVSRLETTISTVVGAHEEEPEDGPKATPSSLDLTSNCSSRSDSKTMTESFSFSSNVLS

CC[C@]1(O)C[C@H]2CN(CCc3c([nH]c4ccccc34)[C@@](C(=O)OC)(c3cc4c(cc3OC)N(C=O)[C@H]3[C@@](O)(C(=O)OC)[C@H](OC(C)=O)[C@]5(CC)C=CCN6CC[C@]43[C@@H]65)C2)C1 [VINCRISTINE]
Not Active: IC50 [1] | IC50 [2] | Ki [2] | IC50 [3] | IC50 [4] | IC50 [5] | IC50 [6]

CCCOc1ccccc1-c1nc2nn[nH]c2c(=O)[nH]1 [ZAPRINAST]
Not Active: IC50 [1] | IC50 [2] | Ki [2] | IC50 [3] | IC50 [4] | IC50 [5] | IC50 [6]

SODIUM NITROPRUSSIDE
Not Active: IC50 [1] | Ki [1] | IC50 [2] | Ki [2] | IC50 [3] | Ki [3] | IC50 [4] | Ki [4] | IC50 [5] | Ki [5] | IC50 [6] | Ki [6]
